Results published in patent publication US20140206624A1, “TREATMENT OF LEUKEMIA” (THE BRIGHAM AND WOMEN'S HOSPITAL, INC., priority 2011, published 2014).

Key:
[1] = tested on: leukemia-initiating cell (LIC); experiment: Limited dilution assay of LIC function in tertiary recipients; type: in vivo, mouse
Text: Using the same experimental set-up described in panels G leukemia BM cells Saline (MLL-AF9; FoxO1/3/4^+/+, panel H) versus pI-pC (MLL-AF9; FoxO1/3/4^Δ/Δ, panel I) were by isolated by flow cytometry and subsequently transplanted into tertiary recipients at various cell numbers: 300 (n=6), 3,000 (n=6), 30,000 (n=4) and 300,000 (n=4). Animals were then monitored weekly and euthanized upon presentation of external (moribund) and internal (e.g. WBC) signs of AML. The LIC frequencies of each condition are located in the bottom left corner (H. LICfreq^+/+=1:20,688 and I. LICfreq^Δ/Δ=1: 269,310).
As described in FIG. 5, MLL-AF9-induced AML was generated in a FoxO1/3/4^floxed; Mx1-Cre+ genetic background that was subsequently transplanted into secondary mice. Fourteen days post-transplant, secondary recipients were administered with saline or pI-pC and monitored for the development of AML (FIG. 5). BM cells recovered from saline (Ctrl) and pI-pC treated mice that succumbed to AML were then transplanted into tertiary recipients and evaluated for the development of AML (p=0.0061; n=8).
Log-Rank (Mantel-Cox) test was used to determine p values for all Kaplan-Meier survival curve analyses. Unpaired, two-tailed student's t tests were used for all analyses comparing two experimental groups. Poisson statistics was used to determine the leukemia-initiating cell frequency in vivo in FIGS. 9H and 9I as well as in vitro in FIGS. 4E and 4F.
To test whether loss of FoxO1/3/4 also diminished LIC function, a limited dilution assay was performed for leukemia cells immediately following FoxO1/3/4 deletion. Briefly, equal numbers of leukemic BM cells were recovered from FoxO1/3/4^floxed; Mx1-Cre+; MLL-AF9 mice seven days following pI-pC or saline treatment. Recipient mice were then injected with 300, 3,000, 30,000 or 300,000 cells of each condition. Ninety days following transplantation, 100%, 75% and 17% of mice that received 300,000, 30,000 or 3,000 cells, respectively, from saline-treated FoxO1/3/4^floxed; Mx1-Cre+; MLL-AF9 succumbed to AML corresponding to a LIC frequency of 1:20,688 (FIG. 9H). In contrast, 75% of mice transplanted with 300,000 pI-pC-treated FoxO1/3/4^floxed; Mx1-Cre+; MLL-AF9 donor cells developed AML whereas 100% of mice from each other cell dose were alive at day 90.

FoxO1, FoxO3, FoxO4 = experiment: Excision efficiency (Real Time PCR, western blot) in BM; type: in vivo, mouse
Text: RNA recovered from BM was converted to cDNA and then analyzed for FoxO1 (FIG. 10C.), FoxO3 (FIG. 10D.), FoxO4 (FIG. 10E.) and GAPDH expression by quantitative Real Time PCR. Each FoxO gene expression is normalized with GAPDH expression.
BM recovered from one saline-treated FoxO1/3/4^floxed; MLL-AF9; Mx1-Cre+ mouse (lane 1) five FoxO1/3/4^floxed; MLL-AF9; Mx1-Cre+ mice treated with pI-pC (lanes 2-6) that succumbed to AML-related death were subjected to Western blot with FoxO3 (75D8) and Tubulin antibodies.

Substance: polyinosine-polycytidyline [pI-pC]
- increase in median survival ([1]; 300,000 donor cells, pI-pC vs saline-treated): ~2 fold
- median survival ([1]; 300,000 pI-pC-treated donor cells, n=4): 82 days
- mice that developed AML ([1]; 300,000 pI-pC-treated donor cells, ninety days following transplantation): 75%
- mice alive at day 90 ([1]; each other cell dose (300, 3,000, 30,000) of pI-pC-treated donor cells): 100%
- LIC frequency lower than the control group ([1]; pI-pC vs saline): 13 fold
- latency in recipients of donor cells from mice of FIG. 9F ([1]; pI-pC vs saline-treated donors (FIG. 10B)): extended latency
- FOXO1/3/4 expression (quantitative Real Time PCR, normalized with GAPDH) (FoxO1, FoxO3, FoxO4; BM RNA): suppression of FOXO1/3/4 expression
- FOXO3 (Western blot) (FoxO1, FoxO3, FoxO4; BM of Mx1-Cre+ mice that succumbed to AML): below detection
